Results taken from US20240390372A1, “METHODS OF TREATING HAIR-LOSS DISORDERS WITH TYK2 INHIBITORS” (Bristol-Myers Squibb Company, priority 2021, published 2024).

Experiments:
[1] = system: microdissected hair follicles from human scalp; assay: Therapeutic assay: compound added after IL-12+IL-18-induced immune privilege collapse, MHC class I and II expression; format: cell-based
Text: The above assays were adapted to investigate whether TYK2 inhibition can inhibit ongoing IL-12+IL-18-mediated hair follicle immune privilege collapse, and thus whether TYK2 inhibition is a viable therapeutic strategy for treating alopecia areata. In these assays, immune privilege collapse was first induced by treatment with IL-12+IL-18, followed by the addition of the compound of Formula (II).
To assess whether TYK2 inhibition could restore hair follicle immune privilege, 21-31 hair follicles, obtained from 3-4 independent healthy donors, were cultured with vehicle, or with IL-12 (3 ng/mL) and IL-18 (20 ng/ml), for 5-6 days. On day 2 of culture, the compound of Formula (II) (300 nM) or tofacitinib (400 nM) was added until day 5-6. MHC class I expression and MHC class II expression were measured, as was done previously. The graphs in FIGS. 28-31 show mean±SEM, with p-values from the Dunn's multiple comparison test (*p<0.05; **p<0.01; ***p<0.001; ****p<0.0001). FIGS. 32 and 33 show staining of MHC-I and MHC-II, respectively, in hair follicles (scale bar=100 μm). […] As discussed above, MHC class I and II are markers of immune privilege collapse.

[2] = system: microdissected hair follicles from human scalp; assay: Prophylactic assay: pre-treatment before IL-12+IL-18, CD3+ T cell and CD56+ NK cell quantification; format: cell-based; conditions: pre-treatment 300 nM, 5-6 days; IL-12+IL-18 added on day 2
Description: (§1) Resident immune cell populations were assessed by quantification of CD3-positive cells and of CD56-positive cells. Gene expression of treated hair follicles was assessed using whole transcriptome analysis. IFNγ production was quantified by enzyme-linked immunosorbent assay (R&D systems). IL-12RB2-expressing cells were evaluated in healthy donors, acute AA patients, and chronic AA patients using immunohistomorphometry.
The effect of pre-treatment with the compound of Formula (II) on T cell and NK cell expansion following IL-12 and IL-18 stimulation was also examined. 22-40 hair follicles, obtained from 4-5 independent healthy donors, were incubated with vehicle, with the compound of Formula (II) (300 nM), or with tofacitinib (400 nM) for 5-6 days. On day 2 of culture, vehicle, or IL-12 (3 ng/ml) and IL-18 (20 ng/mL) were added. Resident immune cell populations were assessed by quantification of CD3-positive cells and of CD56-positive cells. FIGS. 23-27 provide the results. The graphs in FIGS. 23-26 show mean±SEM and results of the Dunn's multiple comparison test (*p<0.05; ***p<0.001). […] Pre-treatment with the compound of Formula (II) prevented an elevation of CD3+ T cell frequency and of CD56+ NK cell frequency, consistent with the results above.

[3] = system: ex vivo cultured hair follicles; assay: IFNγ secretion into the medium of ex vivo cultured hair follicles treated with IL-12+IL-18 (ELISA; prophylactic and therapeutic assays); format: cell-based, human; conditions: for IFNγ release into the culture medium: hair follicles treated with IL-12+IL-18, assay format not given
Description: as §1
The effect of TYK2 inhibition on IFNγ production by hair follicles was also assessed. Specifically, two assays were performed to examine how TYK2 inhibition affects IFNγ secretion into the medium of ex vivo cultured hair follicles treated with IL-12+IL-18. In the prophylactic assay, hair follicles were pre-treated with the compound of Formula (II) or with tofacitinib, and then were cultured in the presence of IL-12+IL-18, after which IFNγ in the culture medium was measured. In the therapeutic assay, hair follicles were initially treated with IL-12±IL-18; then the compound of Formula (II) or tofacitinib was added and the culture continued, after which IFNγ in the culture medium was measured. The data in FIGS. 39 and 40 are based on the amount of IFNγ measured in pooled culture medium from n=8 hair follicles per group, obtained from 1-2 healthy donors. The graphs show mean±SEM from technical duplicates.

[4] = system: microdissected hair follicles from human scalp; assay: Prophylactic assay: pre-treatment before IL-12+IL-18, MHC class I and II levels; format: cell-based
Description: To address the role of IL-12 in AA pathobiology and its potential as a therapeutic target, microdissected hair follicles from human scalp were cultured in the presence of IL-12 (3 ng/mL) and IL-18 (20 ng/mL) and in the presence or absence of a selective allosteric TYK2 inhibitor, the compound of Formula (II) (300 nM). IFNγ (75 UI/mL) was used as a positive control to induce immune privilege (IP) collapse, and tofacitinib was used as a positive control for blocking IFNγ signaling. Hair follicle immune privilege (HF-IP) was assessed by quantitative immunohistomorphometry of MHC class I, of MHC class II, and of MHC class chain-related protein A and MHC class chain-related protein B (MICA/B).
Hair follicles were pre-treated with the compound having the structure of Formula (II) (denoted “BMS” in the figures), followed by the addition of IL-12 and IL-18, in a prophylactic assay. Tofacitinib was used as a control, for comparison. For this assay, each group included 19-40 hair follicles, obtained from 3-5 independent healthy donors. The groups were treated as follows: with vehicle, with the compound of Formula (II) (300 nM), or with tofacitinib (400 nM) for 5-6 days; on day 2 of culture, vehicle, or IL-12 (3 ng/ml) and IL-18 (20 ng/mL) were added. Levels of MHC class I and of MHC class II were assessed as described above, and FIGS. 17-22 provide the results. The graphs in FIGS. 17-20 show mean±SEM and results of the Dunn's multiple comparison test (*p<0.05; **p<0.01; ****p<0.0001). FIGS. 21 and 22 show staining of MHC-I and MHC-II, respectively, in hair follicles (scale bar=100 μm).

[5] = system: microdissected hair follicles from human scalp; assay: Therapeutic assay: compound added after IL-12+IL-18, T cell and NK cell expansion (CD3/CD56 immunostaining); format: cell-based; conditions: 300 nM added on day 2 of IL-12+IL-18 culture
Description: To assess whether TYK2 inhibition can block ongoing T cell and NK cell expansion, hair follicles were first incubated with vehicle, or with IL-12+IL-18, followed by the addition of the compound of Formula (II) or of tofacitinib. Specifically, 24-33 hair follicles, obtained from 3-4 independent healthy donors, were treated with vehicle, or with IL-12 (3 ng/ml) and IL-18 (20 ng/ml), for 5-6 days. On day 2 of culture, the compound of Formula (II) (300 nM) or tofacitinib (400 nM) was added. T cell expansion and NK cell expansion were assessed by immunostaining for CD3 (T cells) or CD56 (NK cells). The graphs in FIGS. 34-37 show mean±SEM, with p-values from the Dunn's multiple comparison test (*p<0.05; **p<0.01; ***p<0.001; ****p<0.0001). FIG. 38 provides images of staining for CD3 and CD56 in hair follicles (scale bar=50 μm).

[6] = 300 nM added on day 2 until day 5-6 of IL-12+IL-18 culture
[7] = 300 nM for 5-6 days, IL-12 3 ng/mL and IL-18 20 ng/mL added on day 2
[8] = 400 nM added on day 2 until day 5-6 of IL-12+IL-18 culture

Row | SMILES | IL-12+IL-18-induced expression of MHC class I [1, 6] | IL-12+IL-18-induced expression of MHC class II [1, 6] | elevation of CD3+ T cell frequency [2] | elevation of CD56+ NK cell frequency [2] | IFNγ release into the culture medium [3] | IL-12+IL-18-mediated upregulation of MHC class I in the outer root sheath [4, 7] | IL-12+IL-18-mediated upregulation of MHC class II in the outer root sheath [4, 7] | effect on MHC class I and II upregulation compared with tofacitinib ([4]; compound 300 nM versus tofacitinib 400 nM, prophylactic) | IL-12 and IL-18-induced immune privilege collapse of hair follicles ([4]; pre-treatment, 300 nM) | NK cell expansion induced by IL-12 and IL-18 (hair follicle epithelium and mesenchyme) [5] | T cell expansion induced by IL-12 and IL-18 (hair follicle epithelium and mesenchyme) [5] | IL-12+IL-18-induced expression of MHC class I [1, 8] | IL-12+IL-18-induced expression of MHC class II [1, 8] | restoration of IFNγ secretion to baseline ([3]; therapeutic assay: IL-12+IL-18 first, then compound added)
1 | [2H]C([2H])([2H])NC(=O)c1cnc(NC(=O)C2CC2)cc1Nc1cccc(-c2ncc(F)cn2)c1OC [compound of Formula (II)] | significantly reduced | significantly reduced | prevented | prevented | inhibiting IFNγ release | prevented | prevented | greater than the effect observed with tofacitinib | prevented | reversed | reversed | – | – | –
2 | C[C@@H]1CCN(C(=O)CC#N)C[C@@H]1N(C)c1ncnc2[nH]ccc12 [tofacitinib, reference compound] | – | – | – | – | did not decrease | – | – | – | – | – | – | significantly reduced | significantly reduced | such restoration was not observed
